# In paper PMC3845358 (Journal of immunology (Baltimore, Md. : 1950), 2013):
# Assays:
# [1] = tested on: C57BL6 mice challenged with H1N1 (A/PR/8/34); experiment: H1N1 influenza pneumonia model; type: in vivo, mouse; details: 30 µg/ml in drinking water
# [2] = tested on: C57BL6 mice fed dextran sulfate sodium (DSS); experiment: DSS-induced colitis model; type: in vivo, mouse; details: 100 µg i.p. daily
# COX-1 = COX-1 (Homo sapiens, UniProt P23219); experiment: Purified enzyme activity assay, COX-1; details: 10 µM, purified protein
# [3] = tested on: carrageenan-treated C57BL6 mice; experiment: Carrageenan paw edema model; type: in vivo, mouse; details: 100 µg i.p. daily, 48 h, versus vehicle
# bacterial growth = experiment: Kirby Bauer testing of bacterial growth; details: data not shown
# Fbxo3 [4] = target: T1, Fbxo3 (Homo sapiens, UniProt Q9UK99); experiment: Fbxo3/Fbxl2 protein interaction pull-down assay; type: binding; details: Fbxo3 beads from Hela cell lysates, 10^−11 to 10^−4 M tested
# T1 sequence (Q9UK99 1-471): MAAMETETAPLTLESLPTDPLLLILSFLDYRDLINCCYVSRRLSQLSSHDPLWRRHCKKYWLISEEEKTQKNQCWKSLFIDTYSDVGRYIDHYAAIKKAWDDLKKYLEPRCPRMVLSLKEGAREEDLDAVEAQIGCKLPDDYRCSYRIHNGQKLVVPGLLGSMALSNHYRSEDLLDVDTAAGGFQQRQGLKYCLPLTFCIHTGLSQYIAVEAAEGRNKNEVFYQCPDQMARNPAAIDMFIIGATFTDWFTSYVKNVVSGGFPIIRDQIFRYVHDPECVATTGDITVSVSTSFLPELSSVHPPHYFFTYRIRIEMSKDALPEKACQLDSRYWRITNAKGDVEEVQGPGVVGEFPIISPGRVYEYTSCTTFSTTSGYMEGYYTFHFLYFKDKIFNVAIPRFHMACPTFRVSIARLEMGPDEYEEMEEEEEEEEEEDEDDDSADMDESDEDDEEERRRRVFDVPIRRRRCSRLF
# LPS-treated PBMC = experiment: Cytokine array of LPS-treated PBMC; type: cell-based, human; details: 10 µg/ml, LPS 2 µg/ml, 16 h
# [5] = tested on: Human peripheral blood mononuclear (PBMC) cells; experiment: LPS-stimulated cytokine release from PBMC; type: cell-based; details: 16 h
# [6] = Observation of treated animals across the inflammation models; type: in vivo, mouse; details: parenteral, oral, topical application
# COX-2 [7] = target: T2, COX-2 (Mus musculus, UniProt Q05769); experiment: COX-2 activity and COX-2 levels in MLE cells; type: cell-based, murine; details: 16 h
# T2 sequence (Q05769 18-604): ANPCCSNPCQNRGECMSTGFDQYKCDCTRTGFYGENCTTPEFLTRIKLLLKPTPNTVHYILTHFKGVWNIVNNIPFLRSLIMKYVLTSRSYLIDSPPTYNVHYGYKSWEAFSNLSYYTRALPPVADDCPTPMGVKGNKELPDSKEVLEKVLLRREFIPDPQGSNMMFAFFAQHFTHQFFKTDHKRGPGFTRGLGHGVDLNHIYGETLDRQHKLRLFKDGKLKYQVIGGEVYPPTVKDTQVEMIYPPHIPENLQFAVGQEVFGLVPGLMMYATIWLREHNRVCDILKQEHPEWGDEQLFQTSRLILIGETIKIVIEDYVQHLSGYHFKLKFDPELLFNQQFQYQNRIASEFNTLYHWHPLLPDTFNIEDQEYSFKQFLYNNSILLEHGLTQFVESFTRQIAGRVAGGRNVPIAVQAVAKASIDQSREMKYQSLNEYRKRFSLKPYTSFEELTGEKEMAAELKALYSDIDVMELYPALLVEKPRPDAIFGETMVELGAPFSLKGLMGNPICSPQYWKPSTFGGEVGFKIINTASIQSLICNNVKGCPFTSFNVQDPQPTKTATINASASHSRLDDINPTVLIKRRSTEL
# TRAF 1–6 in MLE cells = experiment: TRAF protein half-life; details: different concentrations, 16 h
# LOX-1 = experiment: Purified enzyme activity assay, LOX-1; details: 10 µM, purified protein
# Fbxo3 [8] = target: T1, Fbxo3; experiment: Reversibility of Fbxo3 inhibition by ultrafiltration and Fbxl2 pull-down; details: 1 mg/ml, one or three rounds of ultrafiltration (3 kDa cutoff)
# [9] = tested on: Murine lung epithelial (MLE) cells; experiment: Immunoblotting of Fbxl2, TRAFs and Fbxl2 substrates in MLE cells
# SCF^Fbxo3 = SCF^Fbxo3 (Homo sapiens, UniProt Q9UK99); experiment: In vitro ubiquitin conjugation assay of Fbxl2; type: biochemical
# [10] = tested on: C57BL6 mice given TPA on ears; experiment: TPA-induced ear edema model; type: in vivo, mouse; details: topical 8, 40, 200 ug/ear, 18 h after TPA, versus vehicle
# COX-2 [11] = target: T3, COX-2 (Homo sapiens, UniProt P35354); experiment: Purified enzyme activity assay, COX-2; details: 10 µM, purified protein
# T3 sequence (P35354 18-604): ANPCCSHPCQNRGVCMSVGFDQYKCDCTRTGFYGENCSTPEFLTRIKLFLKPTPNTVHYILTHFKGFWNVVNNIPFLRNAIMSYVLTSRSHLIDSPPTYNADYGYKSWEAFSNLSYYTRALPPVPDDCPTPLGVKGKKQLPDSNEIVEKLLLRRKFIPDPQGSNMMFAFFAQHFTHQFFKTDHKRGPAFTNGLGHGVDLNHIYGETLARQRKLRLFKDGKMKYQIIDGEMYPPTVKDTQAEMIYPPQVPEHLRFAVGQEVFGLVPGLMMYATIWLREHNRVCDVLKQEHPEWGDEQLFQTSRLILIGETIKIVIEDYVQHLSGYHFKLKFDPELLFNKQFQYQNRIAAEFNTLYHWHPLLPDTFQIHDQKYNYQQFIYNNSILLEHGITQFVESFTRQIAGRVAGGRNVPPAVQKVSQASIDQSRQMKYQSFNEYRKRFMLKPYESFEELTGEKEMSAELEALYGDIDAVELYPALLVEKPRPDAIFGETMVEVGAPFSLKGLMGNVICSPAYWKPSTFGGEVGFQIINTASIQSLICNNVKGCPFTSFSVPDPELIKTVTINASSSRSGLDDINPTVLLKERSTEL
# SCF^Fbxo3, sequence (Q13616 whole entry partner, one chain of several): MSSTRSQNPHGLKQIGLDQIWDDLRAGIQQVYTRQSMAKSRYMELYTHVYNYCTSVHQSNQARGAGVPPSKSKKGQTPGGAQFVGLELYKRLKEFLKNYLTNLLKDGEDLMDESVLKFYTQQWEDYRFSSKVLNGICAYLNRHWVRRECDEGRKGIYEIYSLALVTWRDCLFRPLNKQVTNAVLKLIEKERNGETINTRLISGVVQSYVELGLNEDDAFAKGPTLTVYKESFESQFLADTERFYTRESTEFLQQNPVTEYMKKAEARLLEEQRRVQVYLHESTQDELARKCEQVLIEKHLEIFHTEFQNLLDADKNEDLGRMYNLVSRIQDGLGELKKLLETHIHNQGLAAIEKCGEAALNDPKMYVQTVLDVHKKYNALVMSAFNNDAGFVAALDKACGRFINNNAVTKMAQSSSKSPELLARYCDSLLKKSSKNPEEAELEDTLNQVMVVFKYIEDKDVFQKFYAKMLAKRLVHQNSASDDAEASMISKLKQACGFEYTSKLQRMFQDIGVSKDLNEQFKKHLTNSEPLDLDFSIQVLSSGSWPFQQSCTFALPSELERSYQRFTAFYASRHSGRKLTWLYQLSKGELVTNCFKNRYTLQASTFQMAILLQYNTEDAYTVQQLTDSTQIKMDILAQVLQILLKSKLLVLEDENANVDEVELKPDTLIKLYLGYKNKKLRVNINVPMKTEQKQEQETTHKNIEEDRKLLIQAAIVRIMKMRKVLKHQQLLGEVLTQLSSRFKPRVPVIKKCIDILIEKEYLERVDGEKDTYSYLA
# SCF^Fbxo3, sequence (P63208 whole entry partner, one chain of several): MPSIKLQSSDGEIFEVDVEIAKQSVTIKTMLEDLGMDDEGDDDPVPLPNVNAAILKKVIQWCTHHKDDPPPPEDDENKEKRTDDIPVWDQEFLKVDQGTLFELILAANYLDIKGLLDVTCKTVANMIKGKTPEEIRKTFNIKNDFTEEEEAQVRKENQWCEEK
# SCF^Fbxo3, sequence (P62877 whole entry partner, one chain of several): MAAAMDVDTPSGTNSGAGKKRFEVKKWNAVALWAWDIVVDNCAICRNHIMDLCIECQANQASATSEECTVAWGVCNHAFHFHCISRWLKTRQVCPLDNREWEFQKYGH
# COX-1, sequence (P23219 24-599): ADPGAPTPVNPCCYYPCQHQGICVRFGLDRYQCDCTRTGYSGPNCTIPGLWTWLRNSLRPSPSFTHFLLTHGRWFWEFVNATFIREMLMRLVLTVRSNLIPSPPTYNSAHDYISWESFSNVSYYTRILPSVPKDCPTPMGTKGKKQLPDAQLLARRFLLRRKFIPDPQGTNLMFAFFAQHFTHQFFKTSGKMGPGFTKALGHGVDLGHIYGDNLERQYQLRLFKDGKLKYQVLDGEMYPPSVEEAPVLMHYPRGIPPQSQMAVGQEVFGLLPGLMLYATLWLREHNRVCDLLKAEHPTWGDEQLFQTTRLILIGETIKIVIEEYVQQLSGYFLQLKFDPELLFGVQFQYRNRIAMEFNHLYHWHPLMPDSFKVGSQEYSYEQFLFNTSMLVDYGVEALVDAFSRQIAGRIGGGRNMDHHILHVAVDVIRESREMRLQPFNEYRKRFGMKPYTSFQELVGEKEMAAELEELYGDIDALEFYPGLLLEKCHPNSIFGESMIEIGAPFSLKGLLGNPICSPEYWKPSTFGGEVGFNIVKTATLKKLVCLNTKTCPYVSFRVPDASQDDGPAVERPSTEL
structure (smiles),measurement,setting,value
c1ccc(-c2ccc(CNCCNCc3ccc(-c4ccccn4)cc3)cc2)nc1 [BC-1215],lavage cell counts,[1],remarkably decreased
same,lavage protein concentration,[1],remarkably decreased
same,lung compliance,"[1]; day 5, FlexiVent",increased compliance
same,lung elastance,"[1]; day 5, FlexiVent",reduced elastance
same,"pulmonary edema, hemorrhage and alveolar inflammation",[1]; gross images and H&E,lessened severity
same,survival,"[1]; up to 9 d, versus diluent",significantly increased survival
same,colon length,"[2]; 3.5% DSS five days, compared to control",no significant decrease in colon length
same,TRAF protein levels in colon tissue,[2]; immunoblotting,significant reduction of immunoreactive TRAF2 and TRAF4 content
same,IL1β level in colonic tissue,[2]; versus vehicle,large reduction
same,TNFα level in colonic tissue,[2]; versus vehicle,large reduction
same,colon histology (H&E and Alcian staining),[2]; versus vehicle,significant restoration of colonic crypts with reappearance of goblet cells
same,inhibition of COX-1 enzymatic activity,COX-1,does not cause significant inhibitory effects
same,paw edema (volume),[3],significantly reduce
same,paw thickness,[3],significantly reduce
same,inhibition of bacterial growth,bacterial growth,modest inhibition of bacterial growth
same,concentration of maximal inhibitory binding (Fbxl2 pull-down by Fbxo3 beads),Fbxo3 [4],10^−7 M
same,release of Th1 panel cytokines,LPS-treated PBMC,remarkably suppressed the majority of the Th1 panel cytokines
same,IC50,"[5]; Homo sapiens, read-out: IC50 for IL-1β",0.9 µg/mL
same,overt signs of distress in treated animals,[6],not observed to exhibit overt signs of distress
same,COX-2 activity in cells,"COX-2 [7]; 10 µg/ml, positive control DuP-697",did not alter COX-2 activity
same,immunoreactive COX-2 levels,"COX-2 [7]; different concentrations, immunoblotting",did not alter immunoreactive COX-2 levels
same,TRAF steady-state mRNA levels,TRAF 1–6 in MLE cells,without altering TRAF steady-state mRNA levels
same,inhibition of LOX-1 enzymatic activity,LOX-1,does not cause significant inhibitory effects
same,reversibility of Fbxo3 inhibition,Fbxo3 [8],reversible
same,"TNFα-induced TRAF2/TRAF3 up-regulation and p38, p-IKK activation","[9]; MLE cells co-treated with TNFα 10 ng/ml, 6 h",suppress such effects in a dose-dependent manner
same,"levels of Fbxl2 substrates cyclin D2, cyclin D3 and CCT","[9]; MLE cells, 16 h, immunoblotting",reduced
same,immunoreactive Fbxl2 and TRAF protein levels,"[9]; cells, range of concentrations, compared to benzathine control",increased immunoreactive Fbxl2 levels and reduced TRAF proteins
same,IC50,SCF^Fbxo3,0.1 µM
same,ear thickness,[10],significantly reduced
same,ear weight (punch biopsy),[10],significantly reduced
same,inhibition of COX-2 enzymatic activity,COX-2 [11],does not cause significant inhibitory effects
"c1ccc(CNCCNCc2ccccc2)cc1 [benzathine, reference compound]",IC50 for IL-1β,"[5]; LPS 2 µg/ml, ELISA",25 µg/mL
